Source: the kinase profiling compilation of Christmann-Franck et al. (2016)
Several values for one entry are separate records, joined by “and”; a condition that tells them apart may be missing. Identical values can stand only once.

Columns and labels:
Assay in all cases: radiometric filter-binding kinase assay, Kinase HotSpot
Conditions in all cases: compound 0.5 µM; ATP 10 µM
[1] = biological target: AXL (human) (UniProt P30530)
[2] = biological target: CHEK2 (human) (UniProt O96017)
[3] = biological target: ZAP70 (human) (UniProt P43403)
[4] = biological target: CSK (human) (UniProt P41240)
[5] = biological target: JAK3 JH1 JH2 (human) (UniProt P52333)
[6] = biological target: MYLK2 (human) (UniProt Q9H1R3)
[7] = biological target: ULK3 (human) (UniProt Q6PHR2)
[8] = biological target: PRKACG (human) (UniProt P22612)
[9] = biological target: MAP4K5 (human) (UniProt Q9Y4K4)
[10] = biological target: EPHA7 (human) (UniProt Q15375)
[11] = biological target: TSSK2 (human) (UniProt Q96PF2)
[12] = biological target: IKBKE (human) (UniProt Q14164)
[13] = biological target: DYRK1B (human) (UniProt Q9Y463)
[14] = biological target: CAMK4 (human) (UniProt Q16566)
[15] = biological target: LCK (human) (UniProt P06239)
[16] = biological target: PRKD1 (human) (UniProt Q15139)
[17] = biological target: NEK9 (human) (UniProt Q8TD19)
[18] = biological target: BRAF (human) (UniProt P15056)
[19] = biological target: MAP3K7 TAB1 (human) (UniProt O43318+Q15750)
[20] = biological target: EPHB3 (human) (UniProt P54753)
[21] = biological target: KDR (human) (UniProt P35968)
[22] = biological target: CDK9 CCNT1 (human) (UniProt P50750+O60563)
[23] = biological target: RAF1 (human) (UniProt P04049)
[24] = biological target: CHEK1 (human) (UniProt O14757)
[25] = biological target: DSTYK (human) (UniProt Q6XUX3)
[26] = biological target: EPHA6 (human) (UniProt Q9UF33)
[27] = biological target: ABL1 (human) (UniProt P00519)
[28] = biological target: PTK6 (human) (UniProt Q13882)
[29] = biological target: MYO3B (human) (UniProt Q8WXR4)
[30] = biological target: MAPK14 (human) (UniProt Q16539)
[31] = biological target: TLK2 (human) (UniProt Q86UE8)
[32] = biological target: EGFR (human) (UniProt P00533)
[33] = biological target: PAK6 (human) (UniProt Q9NQU5)
[34] = biological target: BMX (human) (UniProt P51813)
[35] = biological target: MINK1 (human) (UniProt Q8N4C8)
[36] = biological target: CLK3 (human) (UniProt P49761)
[37] = biological target: PAK7 (human) (UniProt Q9P286)
[38] = biological target: PHKG2 (human) (UniProt P15735)
[39] = biological target: TTK (human) (UniProt P33981)
[40] = biological target: PRKG1 (human) (UniProt Q13976)
[41] = biological target: CDK2 CCNA2 (human) (UniProt P24941+P20248)
[42] = biological target: STK38 (human) (UniProt Q15208)

Chain of PRKACG (human) (P22612 whole entry, looked up): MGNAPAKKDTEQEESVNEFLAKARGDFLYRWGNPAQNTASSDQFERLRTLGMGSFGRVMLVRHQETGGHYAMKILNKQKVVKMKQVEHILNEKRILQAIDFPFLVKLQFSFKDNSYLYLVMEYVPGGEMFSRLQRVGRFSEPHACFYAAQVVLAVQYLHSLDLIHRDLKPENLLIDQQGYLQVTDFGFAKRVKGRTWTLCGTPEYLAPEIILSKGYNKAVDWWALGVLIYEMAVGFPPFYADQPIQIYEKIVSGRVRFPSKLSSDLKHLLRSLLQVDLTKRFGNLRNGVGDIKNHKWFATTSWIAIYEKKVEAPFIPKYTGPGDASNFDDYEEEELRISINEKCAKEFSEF
Chain of DYRK1B (human) (Q9Y463 whole entry, looked up): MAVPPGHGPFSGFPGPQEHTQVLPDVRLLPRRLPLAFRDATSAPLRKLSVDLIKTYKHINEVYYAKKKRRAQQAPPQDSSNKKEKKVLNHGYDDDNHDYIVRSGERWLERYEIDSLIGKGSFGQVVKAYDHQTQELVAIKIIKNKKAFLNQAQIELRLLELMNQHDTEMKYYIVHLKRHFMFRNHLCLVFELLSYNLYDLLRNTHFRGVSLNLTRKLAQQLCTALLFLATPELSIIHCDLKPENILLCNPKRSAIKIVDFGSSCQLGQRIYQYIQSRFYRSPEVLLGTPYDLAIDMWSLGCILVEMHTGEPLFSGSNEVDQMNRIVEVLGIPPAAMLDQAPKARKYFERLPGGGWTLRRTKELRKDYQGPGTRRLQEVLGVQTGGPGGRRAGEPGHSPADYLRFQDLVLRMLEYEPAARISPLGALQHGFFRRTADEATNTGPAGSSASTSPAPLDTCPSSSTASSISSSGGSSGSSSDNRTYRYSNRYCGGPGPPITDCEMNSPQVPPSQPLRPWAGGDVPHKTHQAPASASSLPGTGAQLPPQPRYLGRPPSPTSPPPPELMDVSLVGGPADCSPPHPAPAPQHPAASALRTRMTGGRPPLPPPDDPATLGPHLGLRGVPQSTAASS
Chain of CHEK2 (human) (O96017 whole entry, looked up): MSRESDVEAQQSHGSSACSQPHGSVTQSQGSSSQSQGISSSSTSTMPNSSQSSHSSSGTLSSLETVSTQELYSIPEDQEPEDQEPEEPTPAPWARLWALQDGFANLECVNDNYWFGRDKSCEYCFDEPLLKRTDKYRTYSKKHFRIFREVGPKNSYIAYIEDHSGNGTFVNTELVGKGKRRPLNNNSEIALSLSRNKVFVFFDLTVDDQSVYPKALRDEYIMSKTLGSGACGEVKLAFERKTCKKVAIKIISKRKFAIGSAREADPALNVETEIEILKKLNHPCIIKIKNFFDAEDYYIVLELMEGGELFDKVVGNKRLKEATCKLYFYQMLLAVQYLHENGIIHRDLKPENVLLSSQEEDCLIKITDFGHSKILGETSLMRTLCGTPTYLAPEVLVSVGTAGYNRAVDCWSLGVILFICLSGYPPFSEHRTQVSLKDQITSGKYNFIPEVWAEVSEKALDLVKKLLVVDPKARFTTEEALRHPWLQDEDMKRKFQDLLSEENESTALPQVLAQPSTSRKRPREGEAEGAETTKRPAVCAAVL
Chain of ULK3 (human) (Q6PHR2 whole entry, looked up): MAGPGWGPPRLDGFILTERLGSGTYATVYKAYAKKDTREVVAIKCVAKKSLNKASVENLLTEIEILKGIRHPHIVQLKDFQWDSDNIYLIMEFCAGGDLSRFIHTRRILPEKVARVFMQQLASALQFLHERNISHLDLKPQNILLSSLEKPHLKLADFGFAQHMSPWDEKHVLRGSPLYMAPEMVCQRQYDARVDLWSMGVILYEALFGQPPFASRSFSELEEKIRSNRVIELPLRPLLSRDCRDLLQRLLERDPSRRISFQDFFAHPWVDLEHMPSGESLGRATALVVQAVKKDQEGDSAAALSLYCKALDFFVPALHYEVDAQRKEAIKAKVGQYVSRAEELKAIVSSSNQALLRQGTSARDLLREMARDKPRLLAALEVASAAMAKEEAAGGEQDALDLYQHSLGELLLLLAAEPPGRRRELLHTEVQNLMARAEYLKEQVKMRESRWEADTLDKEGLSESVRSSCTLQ
Chain of PAK7 (human) (Q9P286 whole entry, looked up): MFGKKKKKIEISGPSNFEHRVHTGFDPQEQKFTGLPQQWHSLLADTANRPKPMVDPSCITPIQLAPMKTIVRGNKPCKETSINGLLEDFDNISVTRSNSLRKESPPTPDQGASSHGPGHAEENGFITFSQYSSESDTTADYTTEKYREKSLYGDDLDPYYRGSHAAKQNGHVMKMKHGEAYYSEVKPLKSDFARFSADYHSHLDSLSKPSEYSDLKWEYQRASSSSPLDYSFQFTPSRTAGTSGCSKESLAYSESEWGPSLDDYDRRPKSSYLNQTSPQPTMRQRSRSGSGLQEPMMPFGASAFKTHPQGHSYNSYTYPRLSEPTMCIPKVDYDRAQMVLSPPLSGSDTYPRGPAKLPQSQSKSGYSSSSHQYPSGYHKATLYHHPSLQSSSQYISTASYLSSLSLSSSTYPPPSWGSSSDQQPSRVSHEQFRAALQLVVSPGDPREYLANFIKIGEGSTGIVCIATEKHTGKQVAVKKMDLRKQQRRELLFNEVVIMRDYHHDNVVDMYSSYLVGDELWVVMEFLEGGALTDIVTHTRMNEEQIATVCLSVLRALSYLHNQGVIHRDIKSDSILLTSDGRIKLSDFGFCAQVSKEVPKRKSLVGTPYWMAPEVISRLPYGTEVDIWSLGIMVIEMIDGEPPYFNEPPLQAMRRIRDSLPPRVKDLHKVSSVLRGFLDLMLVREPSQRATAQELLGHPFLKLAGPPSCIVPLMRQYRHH
Chain of CDK9 CCNT1 (human) (O60563 whole entry, looked up): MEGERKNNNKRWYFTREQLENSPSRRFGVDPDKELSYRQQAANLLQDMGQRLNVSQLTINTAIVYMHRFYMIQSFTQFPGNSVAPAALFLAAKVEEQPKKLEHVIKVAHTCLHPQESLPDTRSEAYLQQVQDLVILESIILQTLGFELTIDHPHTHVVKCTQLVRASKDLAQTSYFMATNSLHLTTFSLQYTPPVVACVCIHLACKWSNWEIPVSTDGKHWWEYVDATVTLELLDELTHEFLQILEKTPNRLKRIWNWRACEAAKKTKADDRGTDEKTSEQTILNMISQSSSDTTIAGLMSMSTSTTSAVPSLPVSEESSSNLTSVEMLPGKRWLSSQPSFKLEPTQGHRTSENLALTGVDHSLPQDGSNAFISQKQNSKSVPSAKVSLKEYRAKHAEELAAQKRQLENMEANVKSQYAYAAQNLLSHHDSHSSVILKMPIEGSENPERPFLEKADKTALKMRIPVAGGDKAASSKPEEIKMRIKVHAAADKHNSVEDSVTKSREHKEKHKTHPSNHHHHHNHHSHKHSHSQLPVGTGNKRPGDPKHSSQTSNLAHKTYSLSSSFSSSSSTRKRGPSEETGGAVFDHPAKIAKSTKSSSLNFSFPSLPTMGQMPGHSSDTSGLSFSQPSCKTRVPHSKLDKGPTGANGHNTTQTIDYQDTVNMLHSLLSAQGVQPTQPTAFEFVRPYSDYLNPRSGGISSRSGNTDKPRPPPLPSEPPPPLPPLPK
Chain of CDK9 CCNT1 (human) (P50750 whole entry, looked up): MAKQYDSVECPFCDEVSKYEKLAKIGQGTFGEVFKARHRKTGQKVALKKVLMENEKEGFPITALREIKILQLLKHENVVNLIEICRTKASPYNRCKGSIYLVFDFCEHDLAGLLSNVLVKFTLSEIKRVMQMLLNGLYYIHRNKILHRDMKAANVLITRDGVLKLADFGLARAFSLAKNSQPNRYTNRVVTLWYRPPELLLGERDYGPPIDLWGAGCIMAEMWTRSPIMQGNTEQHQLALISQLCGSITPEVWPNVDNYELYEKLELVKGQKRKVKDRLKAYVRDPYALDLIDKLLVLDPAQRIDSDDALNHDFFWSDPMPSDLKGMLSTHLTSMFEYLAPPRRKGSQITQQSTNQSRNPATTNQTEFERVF
Chain of MAP4K5 (human) (Q9Y4K4 whole entry, looked up): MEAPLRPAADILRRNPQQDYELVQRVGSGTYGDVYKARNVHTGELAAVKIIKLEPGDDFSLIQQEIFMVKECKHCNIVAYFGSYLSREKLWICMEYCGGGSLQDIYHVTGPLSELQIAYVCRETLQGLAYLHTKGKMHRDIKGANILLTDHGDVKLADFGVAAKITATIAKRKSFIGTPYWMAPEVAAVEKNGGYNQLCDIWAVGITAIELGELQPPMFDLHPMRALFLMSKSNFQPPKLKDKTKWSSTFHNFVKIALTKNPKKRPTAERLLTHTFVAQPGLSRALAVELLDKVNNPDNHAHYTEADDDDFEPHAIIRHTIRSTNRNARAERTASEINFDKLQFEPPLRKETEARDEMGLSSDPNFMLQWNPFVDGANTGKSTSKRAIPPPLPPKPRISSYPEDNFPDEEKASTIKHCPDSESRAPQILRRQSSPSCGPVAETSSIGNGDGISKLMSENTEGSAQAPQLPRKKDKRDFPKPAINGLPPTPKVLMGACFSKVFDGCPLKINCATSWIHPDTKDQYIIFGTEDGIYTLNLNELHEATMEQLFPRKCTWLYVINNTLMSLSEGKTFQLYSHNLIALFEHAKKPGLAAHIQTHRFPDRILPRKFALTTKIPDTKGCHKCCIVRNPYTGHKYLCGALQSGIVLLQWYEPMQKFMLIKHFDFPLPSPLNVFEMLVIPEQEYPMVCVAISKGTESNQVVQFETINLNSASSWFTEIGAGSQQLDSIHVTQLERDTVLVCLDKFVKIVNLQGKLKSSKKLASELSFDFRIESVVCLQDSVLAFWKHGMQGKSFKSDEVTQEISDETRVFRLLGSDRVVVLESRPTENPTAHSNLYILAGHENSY
Chain of TSSK2 (human) (Q96PF2 whole entry, looked up): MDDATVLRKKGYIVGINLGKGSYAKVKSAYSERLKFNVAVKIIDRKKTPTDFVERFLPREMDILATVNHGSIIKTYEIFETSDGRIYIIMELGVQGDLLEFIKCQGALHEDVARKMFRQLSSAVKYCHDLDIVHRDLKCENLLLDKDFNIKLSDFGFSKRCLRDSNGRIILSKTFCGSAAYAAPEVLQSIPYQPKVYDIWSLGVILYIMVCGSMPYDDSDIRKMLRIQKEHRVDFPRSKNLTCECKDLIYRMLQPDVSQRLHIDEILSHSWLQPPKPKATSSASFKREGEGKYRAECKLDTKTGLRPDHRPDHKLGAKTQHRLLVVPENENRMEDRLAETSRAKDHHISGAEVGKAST

## O=C(O)c1ccc2c3c1cccc3c(=O)n1c3ccccc3nc21
[1]
  residual activity: 94.3%
[2]
  residual activity: 75.2%
[3]
  residual activity: 119%
[4]
  residual activity: 101%
[5]
  residual activity: 46.9%
[6]
  residual activity: 99.6%
[7]
  residual activity: 79.8%
[8]
  residual activity: 127%
[9]
  residual activity: 47%
[10]
  residual activity: 103%
[11]
  residual activity: 106%
[12]
  residual activity: 57.3%
[13]
  residual activity: 40.1%
[14]
  residual activity: 101%
[15]
  residual activity: 101%
[16]
  residual activity: 86.2%
[17]
  residual activity: 94.1%
[18]
  residual activity: 95.1%
[19]
  residual activity: 74.4%
[20]
  residual activity: 94.5%
[21]
  residual activity: 101%
[22]
  residual activity: 78.3%
[23]
  residual activity: 97.5%
[24]
  residual activity: 101%
[25]
  residual activity: 103%
[26]
  residual activity: 105%
[27]
  residual activity: 99.3%
[28]
  residual activity: 91.1%
[29]
  residual activity: 96.7%
[30]
  residual activity: 99%
[31]
  residual activity: 91.2%
[32]
  residual activity: 96.5%
[33]
  residual activity: 103%
[34]
  residual activity: 96.4%
[35]
  residual activity: 79.8%
[36]
  residual activity: 95.4%
[37]
  residual activity: 98.7%
[38]
  residual activity: 94.7%
[39]
  residual activity: 81%
[40]
  residual activity: 94% and 95.1%
[41]
  residual activity: 82.7%
[42]
  residual activity: 97.5%

## FC(F)(F)c1ccc(/C=C/c2nc(COc3ccc(CCCCn4ccnn4)cc3)co2)cc1
[1]
  residual activity: 101%
[2]
  residual activity: 103%
[3]
  residual activity: 115%
[4]
  residual activity: 106%
[5]
  residual activity: 93%
[6]
  residual activity: 101%
[7]
  residual activity: 99.5%
[8]
  residual activity: 105%
[9]
  residual activity: 96.5%
[10]
  residual activity: 95.2%
[11]
  residual activity: 100%
[12]
  residual activity: 94.8%
[13]
  residual activity: 96.7%
[14]
  residual activity: 97.7%
[15]
  residual activity: 92.1%
[16]
  residual activity: 93.2%
[17]
  residual activity: 95.5%
[18]
  residual activity: 94.3%
[19]
  residual activity: 88.7%
[20]
  residual activity: 94.9%
[21]
  residual activity: 106%
[22]
  residual activity: 99.5%
[23]
  residual activity: 97.1%
[24]
  residual activity: 108%
[25]
  residual activity: 88.8%
[26]
  residual activity: 99.3%
[28]
  residual activity: 97.8%
[29]
  residual activity: 93.7%
[30]
  residual activity: 103%
[31]
  residual activity: 98.6%
[32]
  residual activity: 97.7%
[33]
  residual activity: 100%
[34]
  residual activity: 99%
[35]
  residual activity: 96.8%
[36]
  residual activity: 92.2%
[37]
  residual activity: 89.4%
[38]
  residual activity: 93.5%
[39]
  residual activity: 111%
[40]
  residual activity: 75.9% and 98.1%
[41]
  residual activity: 87.9%
[42]
  residual activity: 102%

## COc1cccc(-c2cc(=O)c3ccccc3o2)c1N
[1]
  residual activity: 127%
[2]
  residual activity: 98.8%
[3]
  residual activity: 107%
[4]
  residual activity: 83.7%
[5]
  residual activity: 96.9%
[6]
  residual activity: 101%
[7]
  residual activity: 94.6%
[8]
  residual activity: 96%
[9]
  residual activity: 91.1%
[10]
  residual activity: 98.6%
[11]
  residual activity: 79.7%
[12]
  residual activity: 95.1%
[13]
  residual activity: 88.1%
[14]
  residual activity: 104%
[15]
  residual activity: 99%
[16]
  residual activity: 103%
[17]
  residual activity: 102%
[18]
  residual activity: 93.6%
[19]
  residual activity: 98.7%
[20]
  residual activity: 91.9%
[21]
  residual activity: 81.3%
[22]
  residual activity: 93.6%
[23]
  residual activity: 91.5%
[24]
  residual activity: 103%
[25]
  residual activity: 97.1%
[26]
  residual activity: 81.2%
[27]
  residual activity: 93.9%
[28]
  residual activity: 92.6%
[29]
  residual activity: 97.8%
[30]
  residual activity: 76.2%
[31]
  residual activity: 84.8%
[32]
  residual activity: 81.2%
[33]
  residual activity: 95.5%
[34]
  residual activity: 103%
[35]
  residual activity: 96.2%
[36]
  residual activity: 95.4%
[37]
  residual activity: 99.7%
[38]
  residual activity: 117%
[39]
  residual activity: 99%
[40]
  residual activity: 108% and 111%
[41]
  residual activity: 102%
[42]
  residual activity: 97.4%
